# From patent publication US10744092B2, “Temperature-sensitive composite and method for preparing same” (KOREA UNIVERSITY RESEARCH AND BUSINESS FOUNDATION, SEJONG …, priority 2016, dated 2020)
# What was measured:
# [1] = Release pattern of drug from composite (dialysis bag in PBS pH 7.4, HPLC); type: physicochemical; settings: at body temperature (37° C.) versus room temperature; PBS pH 7.4, dialysis bag
# Protocol: To confirm the release pattern of a drug from the temperature-sensitive composite in the present invention, an experiment was carried out as follows. 20 mg of each of the temperature-sensitive composites from Examples 1, 2 and 3, and the temperature-sensitive polymer composites from Comparative Examples 1, 2 and 3 was put into a dialysis bag (filtration molecular weight cut-off—100,000), and then immersed in 20 ml of a phosphate buffer solution (PBS, pH 7.4). The temperature was maintained at 25° C. and 37.5° C. with stirring at 600 rpm. At predetermined time, 5 ml of the phosphate buffer solution was withdrawn to measure an amount of the released drug through HPLC. After sampling, the remaining phosphate buffer solution was completely removed, and a fresh phosphate buffer solution was added.
# [2] = Precipitation / stability and solubility of drug in composite aqueous solution; type: physicochemical; settings: drug not loaded in nanoparticles
# Protocol: An aqueous solution was prepared by mixing 2 g of Pluronic F-127, 0.1 g of naproxen and 50 mg of sodium hyaluronate with 10 ml of distilled water, thereby preparing a polymer composite aqueous solution in which naproxen was dispersed.
# An aqueous solution was prepared by mixing 1.6 g of Pluronic F-127, 0.4 g of Pluronic F-68, 50 mg of doxorubicin and 75 mg of docetaxel with 10 ml of distilled water, thereby preparing a polymer composite aqueous solution in which doxorubicin and docetaxel were dispersed.
SMILES,release of the drug [1],precipitation in the polymer composite [2]
CCCCN1CCCCC1C(=O)Nc1c(C)cccc1C (stereo not shown) [bupivacaine],decreased,–
CC(=O)O[C@@]12CO[C@@H]1C[C@H](O)[C@@]1(C)C(=O)[C@H](O)C3=C(C)[C@@H](OC(=O)[C@H](O)[C@@H](NC(=O)OC(C)(C)C)c4ccccc4)C[C@@](O)([C@@H](OC(=O)c4ccccc4)[C@H]21)C3(C)C [docetaxel],–,precipitated
COc1cccc2c1C(=O)c1c(O)c3c(c(O)c1C2=O)C[C@@](O)(C(=O)CO)C[C@@H]3O[C@H]1C[C@H](N)[C@H](O)[C@H](C)O1 [doxorubicin],decreased,–
COc1ccc2cc([C@H](C)C(=O)O)ccc2c1 [naproxen],–,precipitated
